Measured values taken from patent publication US9643994B2, “Crystalline polymorphic form of ulipristal acetate” (ASKA PHARMACEUTICAL CO., LTD., priority 2012, dated 2017).
Converted amounts (≈) assume the structure as drawn. Like-named read-outs stand apart in the source and are kept apart here.

Experiment: Solubility in ethanol/water (10/90) mixed solvent at 37° C., HPLC quantitation
Type: physicochemical
From the text: [Solubility] […] Then a portion of the suspension was separated.

CC(=O)O[C@]1(C(C)=O)CCC2C3CCC4=CC(=O)CCC4=C3[C@@H](c3ccc(N(C)C)cc3)C[C@@]21C (stereo partly drawn) [Comparative Example, 17alpha-acetoxy-11beta-(4-N,N-dimethylaminophenyl)-19-norpregna-4,9-diene-3,20-dione]
Solubility: 6.4 µg/mL (≈ 13.5 µM)

CC(=O)O[C@]1(C(C)=O)CCC2C3CCC4=CC(=O)CCC4=C3[C@@H](c3ccc(N(C)C)cc3)C[C@@]21C (stereo partly drawn) [Example 1, 17alpha-acetoxy-11beta-(4-N,N-dimethylaminophenyl)-19-norpregna-4,9-diene-3,20-dione]
Solubility (40 mg in 40 mL ethanol/water (volume ratio)=10/90, 37° C., stirred 5 minutes, filtered, HPLC UV 302 nm): 9.2 µg/mL
